Data published in US11351157B2, “Treatment of immunological disease using berberine nanoparticles” (Icahn School of Medicine at Mount Sinai, priority 2016, dated 2022).
Like-named read-outs stand apart in the source and are kept apart here.

Assays:
[1] = test system: P-glycoprotein; settings: mediated by P-glycoprotein; cited from earlier work
[2] = test system: peripheral blood mononuclear cells (PBMCs); settings: cited from earlier work; for IgE production by PBMCs: PBMCs from patients with food allergy
[3] = in vivo; cited from earlier work
[4] = test system: human B cells; settings: cited from earlier work; for IgE production by human B cells: human B cells / U266 cells
[5] = test system: peanut-specific IgE; assay: Peanut-specific IgE in serum of peanut-sensitized mice (ELISA); format: in vivo, C3H/HeJ mice; settings: two oral courses, vs Sham
Text: Six-week-old female C3H/HeJ mice purchased from the Jackson Laboratory (Bar Harbor, Me.) were maintained in pathogen-free facilities at the Mount Sinai vivarium on peanut-free chow according to standard guidelines for the care and use of animals. Institute of Laboratory Animal Resources Commission of Life Sciences NRC. Guide for the Care and Use of Laboratory Animals: National Academic Press, 1996. […] Some mice were sensitized to egg white (EW) using a similar protocol. Subsequently, daily oral treatment with BBR-nanoparticles was administered in 4-week and 2-week phases with an interval of 2 weeks at times indicated. Mice were periodically challenged with systemic and oral challenges at approximately 6 week intervals, as indicated. In some experiments mice were given intraperitoneal injections of 100 μg of anti-CD8 or anti-IFNγ antibodies, one day prior and then twice weekly during treatment period. Microtitre plates were coated with defatted protein extracts of peanut or egg white (sample wells) and rat anti-mouse IgE (reference wells) and held overnight at 4° C. After washing three times, plates were blocked for 2 hours at room temperature with 2% BSA-PBS. After three washes plates were incubated with diluted serum samples overnight at 4° C. […] Total IgA, peanut specific IgG1 and IgG2a levels were measured as described in a previous publication. […]

[6] = target: T1, mIgE (membrane-bound IgE) (Homo sapiens, UniProt P01854); settings: clinical trials; cited from earlier work
T1 construct: host or cells: endogenous mIgE on IgE-lineage B cells of human trial subjects
T1 sequence (P01854 whole entry): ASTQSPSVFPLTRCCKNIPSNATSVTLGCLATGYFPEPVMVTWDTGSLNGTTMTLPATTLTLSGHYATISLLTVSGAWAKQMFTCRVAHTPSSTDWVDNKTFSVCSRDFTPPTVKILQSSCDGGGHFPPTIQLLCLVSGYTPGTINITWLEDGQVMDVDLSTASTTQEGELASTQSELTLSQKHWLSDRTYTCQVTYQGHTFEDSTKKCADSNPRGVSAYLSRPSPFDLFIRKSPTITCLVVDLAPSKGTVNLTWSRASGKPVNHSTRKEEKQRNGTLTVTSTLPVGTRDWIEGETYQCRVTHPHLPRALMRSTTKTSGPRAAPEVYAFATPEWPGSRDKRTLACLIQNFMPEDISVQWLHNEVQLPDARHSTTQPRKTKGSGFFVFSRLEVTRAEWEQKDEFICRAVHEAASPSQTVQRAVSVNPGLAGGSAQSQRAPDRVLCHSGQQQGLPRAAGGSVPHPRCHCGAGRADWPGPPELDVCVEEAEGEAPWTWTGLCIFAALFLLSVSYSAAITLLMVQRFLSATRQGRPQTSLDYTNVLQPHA
T1 sequence (P11912 33-226 partner): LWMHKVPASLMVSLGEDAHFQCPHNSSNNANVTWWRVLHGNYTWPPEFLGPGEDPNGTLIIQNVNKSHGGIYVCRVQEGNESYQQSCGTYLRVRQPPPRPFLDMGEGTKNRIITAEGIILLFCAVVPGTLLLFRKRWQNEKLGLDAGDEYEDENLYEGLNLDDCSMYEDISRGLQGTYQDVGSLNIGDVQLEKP
T1 sequence (P40259 29-229 partner): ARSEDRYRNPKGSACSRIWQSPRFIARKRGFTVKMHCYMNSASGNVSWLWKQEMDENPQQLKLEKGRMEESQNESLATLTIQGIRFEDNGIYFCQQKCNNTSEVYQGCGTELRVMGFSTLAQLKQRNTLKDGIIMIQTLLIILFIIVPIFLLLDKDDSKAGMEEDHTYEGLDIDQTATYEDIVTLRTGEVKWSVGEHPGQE

Question: For `COc1ccc2cc3[n+](cc2c1OC)CCc1cc2c(cc1-3)OCO2` [berberine, Berberine], which “Rate of efflux from intestinal epithelial cells” value [1] is on record?
Answer: The value was “up to 95%”.

Question: What about the “IgE production by PBMCs” value [2] of the same molecule?
Answer: The value was “significant reduction”.

Question: What about the “IgE production by PBMCs” value ([2]; listed as Berberine) of the same molecule?
Answer: Its value is “significantly reduced”.

Question: What about the “Cytotoxicity of inhibition in PBMCs” value [2] of the same molecule?
Answer: Its value is “non-cytotoxic”.

Question: What about the “Berberine taken up by the gastrointestinal tract” value [3] of the same molecule?
Answer: The value was “less than 5%”.

Question: What about the Bioavailability [3] of the same molecule?
Answer: Its Bioavailability is “less than 1%”.

Question: What about the “IC50 of IgE production” value [4] of the same molecule?
Answer: Its value is 0.1962 µg/mL.

Question: And the “IgE production by human B cells” value [4]?
Answer: Its value is “significant reduction”.

Question: And the “IgE production by human B cells” value ([4]; listed as Berberine)?
Answer: The value was “significantly reduced”.

Question: What about the “Peanut-specific IgE” value [5] of the same molecule?
Answer: The value was “not”.

B1: quilizumab: mIgE (membrane-bound IgE) targeting antibody studied in clinical trials (antibody, chains of the INN, looked up, V domains shown)
VH: EVQLVESGGGLVQPGGSLRLSCAASGFTFSDYGIAWVRQAPGKGLEWVAFISDLAYTIYYADTVTGRFTISRDNSKNTLYLQMNSLRAEDTAVYYCARDNWDAMDYWGQGTLVTVSS
VL: DIQMTQSPSSLSASVGDRVTITCRSSQSLVHNNANTYLHWYQQKPGKAPKLLIYKVSNRFSGVPSRFSGSGSGTDFTLTISSLQPEDFATYYCSQNTLVPWTFGQGTKVEIK
Question: Which “Clinical benefit in early human studies” value [6] does the source give for B1 here?
Answer: Its value is “without any significant clinical benefit”.

Question: And the “IgE reduction in early human studies” value [6]?
Answer: Its value is “only moderate IgE reduction”.
